The nature of series [1]: Hemolytic activity in human type A RBC assessed as hemolysis after 1 hr by microtitre plate. The format is ADME, cell-based. As to conditions: Erythrocyte.
Series [2] relates to Helicoverpa punctigera. Put plainly: Insecticidal activity against Helicoverpa punctigera assessed as inhibition of development of larvae at 0.825 umol/g after 16 days. The format is functional, organism-based.
A short description of series [3]: Hemolytic activity in human RBC. It is filed as ADME, cell-based, Erythrocyte. The settings on record: human red blood cells, read-out: HD50 (the source's name).
Series [4] has as its system U-937/GTB. The experiment in a line: Cytotoxicity against human U937/GTB cells after 72 hrs by fluorometric microculture cytotoxicity assay. It is filed as functional, cell-based.
Series [5] deals with R1. Put plainly: Cytotoxicity against mouse R1 cells after 72 hrs by fluorometric microculture cytotoxicity assay. As to conditions: R1, 72 h. The format is cell-based.
Series [6] is described as follows: Cytotoxicity against human 8226/LR-5 cells after 72 hrs by fluorometric microculture cytotoxicity assay. The format is functional, cell-based.
The nature of series [7]: Cytotoxicity against human 8226/DOX40 cells after 72 hrs by fluorometric microculture cytotoxicity assay. The format is functional, cell-based.
Series [8] has as its system ACHN. Put plainly: Cytotoxicity against human ACHN cells after 72 hrs by fluorometric microculture cytotoxicity assay. It is filed as functional, cell-based.
Series [9] has as its system RPMI-8226. Put plainly: Cytotoxicity against human RPMI8226/S cells after 72 hrs by fluorometric microculture cytotoxicity assay. The format is functional, cell-based.
Series [10] can be described thus: Cytotoxicity against human CEM/VM1 cells after 72 hrs by fluorometric microculture cytotoxicity assay. It is filed as functional, cell-based. As to conditions: CEM-VM1, 72 h.
The subject of series [11] is CCRF-CEM. Put plainly: Cytotoxicity against human CCRF-CEM cells after 72 hrs by fluorometric microculture cytotoxicity assay. The format is functional, cell-based.
Series [12] concerns U-937. Put plainly: Cytotoxicity against human vincristine-resistant U937 cells after 72 hrs by fluorometric microculture cytotoxicity assay. It is filed as functional, cell-based. As to conditions: U-937, 72 h.
A short description of series [13]: Hemolytic activity in human type A RBC assessed as concentration required to cause 11% hemolysis after 1 hr by microtitre plate. It is filed as ADME, cell-based. The settings on record: erythrocyte.
In series [14] the test system is Human immunodeficiency virus 1. The experiment in a line: Antiviral activity against HIV1 infected in human CEM-SS cells assessed as protection against virus-induced cytopathic effect by XTT method. It is filed as functional, organism-based. As to conditions: Human immunodeficiency virus 1, CEM-SS.
The subject of series [15] is CEM-SS (Homo sapiens). Put plainly: Cytotoxicity against human CEM-SS cells.
For series [16], the system named is Helicoverpa armigera. The experiment in a line: Insecticidal activity against Helicoverpa armigera assessed as growth inhibition. The format is functional, organism-based.

The text below walks through data of ChEMBL document CHEMBL1799917, “Isolation, sequencing, and structure-activity relationships of cyclotides” (J Nat Prod, 2010).

Active and inactive are the calls of the source. The calls are words filed in the database; no cut-off is given here. Where a SMILES comes first, the peptide text is derived from it. Bridges are numbered along the chain shown (N, C = ends).

For `CC[C@H](C)[C@@H]1NC(=O)[C@H](C)NC(=O)[C@H](C)NC(=O)[C@H](CO)NC(=O)[C@H]([C@@H](C)CC)NC(=O)[C@@H]2CSSC[C@@H]3NC(=O)[C@H](C(C)C)NC(=O)[C@H](CCCCN)NC(=O)[C@H](CO)NC(=O)[C@H](CCCCN)NC(=O)[C@@H]4CSSC[C@H](NC(=O)[C@H](CO)NC(=O)[C@H](CCC(=O)O)NC(=O)CNC(=O)[C@H](CSSC[C@H](NC(=O)CNC1=O)C(=O)N[C@@H](CO)C(=O)N4)NC(=O)[C@@H]1CCCN1C(=O)[C@H]([C@@H](C)CC)NC(=O)CNC(=O)[C@H](CC(N)=O)NC(=O)[C@H](CCCNC(=N)N)NC(=O)[C@H](Cc1ccc(O)cc1)NC3=O)C(=O)N[C@@H](C(C)C)C(=O)N[C@@H](Cc1c[nH]c3ccccc13)C(=O)N[C@@H]([C@@H](C)CC)C(=O)N1CCC[C@H]1C(=O)N2` [CYCLOVIOLACIN O13] (cyclo(AAIGCSCKSKVCYRNGIPCGESCVWIPCIS); disulfide 5-19, 7-23, 12-28), the IC50 (in general, the concentration that inhibits the measured activity by half) in series [1] stood at 11000 nM.
`CC(C)C[C@@H]1NC(=O)CNC(=O)[C@H](CC(N)=O)NC(=O)[C@H](CCCNC(=N)N)NC(=O)[C@H]([C@@H](C)O)NC(=O)[C@H](CS)NC(=O)[C@H](C(C)C)NC(=O)[C@@H]2CCCN2C(=O)[C@H](CCC(=O)O)NC(=O)[C@H](CO)NC(=O)[C@H](CS)NC(=O)[C@H]([C@@H](C)O)NC(=O)[C@H](CS)NC(=O)CNC(=O)[C@@H]2CCCN2C(=O)[C@H]([C@@H](C)O)NC(=O)[C@H](CC(N)=O)NC(=O)[C@H](CS)NC(=O)[C@H]([C@@H](C)O)NC(=O)CNC(=O)CNC(=O)[C@H](C(C)C)NC(=O)[C@H](CS)NC(=O)[C@H]([C@@H](C)O)NC(=O)[C@H](CCC(=O)O)NC(=O)CNC(=O)[C@H](CS)NC(=O)[C@H](C(C)C)NC(=O)[C@@H]2CCCN2C1=O` [KALATA B1]: the outcome in series [2] was Active.
Regarding `CC(C)C[C@@H]1NC(=O)CNC(=O)[C@H](CC(N)=O)NC(=O)[C@H](C)NC(=O)[C@H]([C@@H](C)O)NC(=O)[C@@H]2CSSC[C@@H]3NC(=O)[C@H]([C@@H](C)O)NC(=O)CNC(=O)CNC(=O)[C@H](C(C)C)NC(=O)[C@@H]4CSSC[C@H](NC(=O)[C@H](CO)NC(=O)[C@H](CSSC[C@H](NC(=O)[C@H](C(C)C)NC(=O)[C@@H]5CCCN5C1=O)C(=O)NCC(=O)N[C@@H](CCC(=O)O)C(=O)N[C@@H]([C@@H](C)O)C(=O)N4)NC(=O)CNC(=O)[C@@H]1CCCN1C(=O)[C@H]([C@@H](C)O)NC(=O)[C@H](CC(N)=O)NC3=O)C(=O)N[C@@H](CO)C(=O)N[C@@H](CCCNC(=N)N)C(=O)N1CCC[C@H]1C(=O)N[C@@H](C(C)C)C(=O)N2` [VIOLAPEPTIDE 1], the HC50 in [3] amounted to 50 µM.
For the compound `CC(C)C[C@@H]1NC(=O)CNC(=O)[C@H](CC(N)=O)NC(=O)[C@H](CCCNC(=N)N)NC(=O)[C@H]([C@@H](C)O)NC(=O)[C@@H]2CSSC[C@@H]3NC(=O)[C@H]([C@@H](C)O)NC(=O)CNC(=O)CNC(=O)[C@H](C(C)C)NC(=O)[C@@H]4CSSC[C@H](NC(=O)[C@H](CO)NC(=O)[C@H](CSSC[C@H](NC(=O)[C@H](C(C)C)NC(=O)[C@@H]5CCCN5C1=O)C(=O)NCC(=O)N[C@@H](CCC(=O)O)C(=O)N[C@@H]([C@@H](C)O)C(=O)N4)NC(=O)CNC(=O)[C@@H]1CCCN1C(=O)[C@H]([C@@H](C)O)NC(=O)[C@H](CC(N)=O)NC3=O)C(=O)N[C@@H](CO)C(=O)N[C@@H](Cc1c[nH]c3ccccc13)C(=O)N1CCC[C@H]1C(=O)N[C@@H](C(C)C)C(=O)N2`, the half-maximal inhibitory concentration (IC50) in [4], in series [5], in series [6], in series [7], in series [8] and in series [9] was 2730 nM throughout. For the same compound, the IC50 in series [10], in series [11] and in series [12] was 2730 nM each time. The HC50 in series [3] came out at 50 µM.
With `CC[C@H](C)[C@@H]1NC(=O)[C@H](CO)NC(=O)CNC(=O)[C@H](CC(N)=O)NC(=O)[C@H](CCCCN)NC(=O)[C@H](C)NC(=O)[C@@H]2CSSC[C@@H]3NC(=O)[C@H](CCCCN)NC(=O)CNC(=O)[C@H](C)NC(=O)[C@H](Cc4ccccc4)NC(=O)[C@@H]4CSSC[C@H](NC(=O)[C@H](CO)NC(=O)[C@H](CSSC[C@H](NC(=O)[C@H](C)NC(=O)[C@@H]5CCCN5C1=O)C(=O)NCC(=O)N[C@@H](CCC(=O)O)C(=O)N[C@@H](CO)C(=O)N4)NC(=O)CNC(=O)[C@@H]1CCCN1C(=O)[C@H]([C@@H](C)O)NC(=O)[C@H](Cc1ccc(O)cc1)NC3=O)C(=O)N[C@@H](CO)C(=O)N[C@@H](CCCCN)C(=O)N[C@@H](Cc1ccc(O)cc1)C(=O)N1CCC[C@H]1C(=O)N[C@@H](CC(C)C)C(=O)N2` [CYCLOVIOLACIN O14] (cyclo(ACGESCFAGKCYTPGCSCSKYPLCAKNGSIP); disulfide 2-16, 6-18, 11-24), the Activity in series [13] was 25 µM.
As to `CC[C@H](C)[C@@H]1NC(=O)[C@@H]2CCCN2C(=O)[C@H](C(C)C)NC(=O)CNC(=O)[C@H](CC(N)=O)NC(=O)[C@H](CCCNC(=N)N)NC(=O)[C@H]([C@@H](C)O)NC(=O)[C@@H]2CSSC[C@@H]3NC(=O)[C@H]([C@@H](C)O)NC(=O)CNC(=O)[C@H](CC(C)C)NC(=O)[C@H]([C@@H](C)O)NC(=O)[C@@H]4CSSC[C@H](NC(=O)[C@H](CO)NC(=O)[C@H](CSSC[C@H](NC1=O)C(=O)NCC(=O)N[C@@H](CCC(=O)O)C(=O)N[C@@H]([C@@H](C)O)C(=O)N4)NC(=O)CNC(=O)[C@H](C)NC(=O)[C@H]([C@@H](C)O)NC(=O)[C@H](Cc1ccc(O)cc1)NC3=O)C(=O)N[C@@H](CO)C(=O)N[C@@H](Cc1c[nH]c3ccccc13)C(=O)N1CCC[C@H]1C(=O)N[C@@H](C(C)C)C(=O)N2` (cyclo(AGCSCSWPVCTRNGVPICGETCTLGTCYT); disulfide 3-18, 5-22, 10-27), the IC50 in series [4], in series [5], in series [6], in series [7], in series [8] and in series [9] was 2630 nM in each case. Also, the IC50 in series [10], in series [11] and in [12] was 2630 nM in each case.
For the compound `CC(C)C[C@@H]1NC(=O)[C@H](CC(C)C)NC(=O)[C@@H]2CSSC[C@@H]3NC(=O)[C@H]([C@@H](C)O)NC(=O)[C@@H]4CSSC[C@H](NC(=O)[C@H](CC(N)=O)NC(=O)[C@H](CC(C)C)NC(=O)[C@H](C(C)C)NC(=O)[C@H](CO)NC(=O)CNC(=O)[C@H](CC(=O)O)NC(=O)[C@H](CCCCN)NC(=O)[C@H]([C@@H](C)O)NC(=O)[C@H](CSSC[C@H](NC(=O)[C@H]([C@@H](C)O)NC(=O)CNC1=O)C(=O)N[C@@H](Cc1ccc(O)cc1)C(=O)N[C@@H]([C@@H](C)O)C(=O)N[C@@H]([C@@H](C)O)C(=O)NCC(=O)N4)NC(=O)[C@H](C(C)C)NC(=O)[C@H](CCCNC(=N)N)NC(=O)[C@H](Cc1ccc(O)cc1)NC(=O)[C@H](CCCCN)NC(=O)[C@H](CC(N)=O)NC3=O)C(=O)NCC(=O)N[C@@H](CCC(=O)O)C(=O)N[C@@H]([C@@H](C)O)C(=O)N2` [KALATA B8] (cyclo(CGETCLLGTCYTTGCTCNKYRVCTKDGSVLN); disulfide 1-15, 5-17, 10-23), the EC50 (usually the concentration that produces a half-maximal response) in series [14] came to 2500 nM. The IC50 in [15] stood at 3500 nM.
Consider `CC[C@H](C)[C@@H]1NC(=O)[C@@H]2CCCN2C(=O)[C@H](Cc2c[nH]c3ccccc23)NC(=O)[C@H]([C@@H](C)O)NC(=O)[C@@H]2CSSC[C@@H]3NC(=O)[C@](C)([C@@H](C)O)NC(=O)[C@H](CCC(=O)O)NC(=O)CNC(=O)[C@@H]4CSSC[C@H](NC(=O)CNC(=O)[C@@H]5CCCN5C(=O)[C@H]([C@@H](C)O)NC(=O)[C@H](CC(N)=O)NC(=O)[C@H](CSSC[C@H](NC1=O)C(=O)N[C@@H]([C@@H](C)O)C(=O)N[C@@H](CCCNC(=N)N)C(=O)N[C@@H](CC(=O)O)C(=O)NCC(=O)N[C@@H](CC(C)C)C(=O)N1CCC[C@H]1C(=O)N[C@@H](C(C)C)C(=O)N4)NC(=O)[C@H]([C@@H](C)O)NC(=O)CNC(=O)CNC(=O)[C@H](Cc1ccccc1)NC3=O)C(=O)N[C@@H](CO)C(=O)N2`, for which the result in [16] was Active.
On to `CC[C@H](C)[C@@H]1NC(=O)[C@@H]2CCCN2C(=O)[C@H](Cc2ccc(O)cc2)NC(=O)[C@H](CO)NC(=O)[C@@H]2CSSC[C@@H]3NC(=O)[C@H]([C@@H](C)O)NC(=O)[C@H](CCC(=O)O)NC(=O)CNC(=O)[C@@H]4CSSC[C@H](NC(=O)CNC(=O)[C@@H]5CCCN5C(=O)[C@H]([C@@H](C)O)NC(=O)[C@H](Cc5ccc(O)cc5)NC(=O)[C@H](CSSC[C@H](NC1=O)C(=O)N[C@@H](CCCCN)C(=O)N[C@@H](CCCCN)C(=O)N[C@@H](CC(N)=O)C(=O)NCC(=O)N[C@@H](CC(C)C)C(=O)N[C@@H](C(C)C)C(=O)N1CCC[C@H]1C(=O)N4)NC(=O)[C@H](CCCCN)NC(=O)CNC(=O)[C@H]([C@@H](C)O)NC(=O)[C@H](Cc1ccccc1)NC3=O)C(=O)N[C@@H](CO)C(=O)N2` [CYCLOVIOLACIN O15] (cyclo(CFTGKCYTPGCSCSYPICKKNGLVPCGET); disulfide 1-13, 6-18, 11-26), for which the Activity in series [13] was 25 µM.
